From patent US5607944A, “Bicyclic heterocyclic compounds, pharmaceutical preparations containing these compounds and processes for their preparations” (Karl Thomae GmbH, priority 1993, dated 1997)
pEC50, pIC50: −log10 of the molar value. Structures can show the parent of a compound that is named as a salt.

Assays:
platelet aggregation = test: Antithrombotic activity: inhibition of collagen-induced platelet aggregation (Born and Cross) in platelet-rich plasma of healthy volunteers; type: cell-based; settings: Homo sapiens, 10 minutes preincubation at 37° C.
Experimental: 2. Antithrombotic activity Method The thrombocyte aggregation is measured using the method of Born and Cross (J. Physiol. 170:397 (1964)) in platelet-rich plasma taken from healthy volunteers. To inhibit coagulation, the blood is mixed with 3.14% sodium citrate in a volume ratio of 1:10. Collagen-induced aggregation The pattern of the decrease in optical density of the platelet suspension is photometrically measured and recorded after the addition of the aggregation-triggering substance. The rate of aggregation is determined from the angle of inclination of the density curve. The point on the curve where there is maximum light transmittance is used to calculate the optical density. The concentration of collagen used is as small as possible but sufficient to produce an irreversible reaction curve. Standard commercial collagen produced by Hormonchemie of Munich is used. Before the addition of the collagen the plasma is incubated for 10 minutes at 37° C. with the substance. From the measurements obtained, the EC50 is determined graphically as the concentration giving a 50% change in the optical density in terms of the inhibition of aggregation.

human thrombocytes = test: Inhibition of binding of ^3 H-BIBU 52 to human thrombocytes (competitive binding); settings: human platelet-rich plasma diluted 1:10; 5 nM ^3 H-BIBU 52; 20 minutes, ambient temperature; read-out: Competitive binding of ^3 H-BIBU 52/test substance to human thrombocytes IC50
Experimental: 1. Inhibition of binding of ^3 H-BIBU 52 to human thrombocytes:
A suspension of human thrombocytes in plasma is incubated with ^3 H-BIBU 52 [=(3S,5S)-5-[(4'-amidino-4-biphenylyl)oxymethyl]-3-[(carboxyl)methyl]-2pyrrolidinone[3-^3 H-4-biphenylyl]] (see German Patent Application P 42 14 245.8 of the same applicant, dated 30.04.1992, internal reference: Case 5/1093-FL), which replaces the ^125 I fibrinogen ligand known from the literature, and various concentrations of the substance to be tested. The free and bound ligand are separated by centrifuging and quantified by scintillation counting. The inhibition of ^3 H-BIBU 52 binding by the test substance is determined from the measurements obtained.
In order to do this, donor blood is taken from an anticubital vein and anticoagulated with trisodium citrate (final concentration 13 mM). The blood is centrifuged for 10 minutes at 170×g and the supernatant platelet-rich plasma (PRP) is removed. The remaining blood is vigorously centrifuged once more in order to obtain plasma. The PRP is diluted 1:10 with autologous plasma. 750 μl are incubated with 50 μl of physiological saline solution, 100 μl of test substance solution, 50 μl of ^14 C-sucrose (3,700 Bq) and 50 μl of ^3 H-BIBU 52 (final concentration: 5 nM) at ambient temperature for 20 minutes. In order to measure the non-specific binding, 5 μl of BIBU 52 (final concentration: 30 μM) are used instead of the test substance. The samples are centrifuged for 20 seconds at 10,000× g and the supernatant is poured off. 100 μl thereof are measured in order to determine the free ligand. The pellet is dissolved in 500 μl of 0.2N NaOH, 450 μl are mixed with 2 ml of scintillator and 25 μl of 5N HCl and measured. The residual plasma remaining in the pellet is determined from the ^14 C-content and the bound ligand is determined from the ^3 H-measurement. After the non-specific binding has been deducted, the pellet activity is plotted against the concentration of the test substance and the concentration for a 50% inhibition of binding is determined.

mice = test: Tolerance after intravenous administration of 30 mg/kg to three mice; type: in vivo; settings: 30 mg/kg i.v., three mice in each case

Row | pIC50 (human thrombocytes) | SMILES | pEC50 (platelet aggregation) | death of animals after intravenous administration (mice)
1 | 6.68 | O=C(O)CC1CCN(C(=O)c2ccc(-c3nc4c(s3)CNCC4)cc2)CC1 [2(1), 2-[4-[4-(carboxymethyl)-piperidinocarbonyl]-phenyl]-4,5,6,7-tetrahydro-thiazolo[5,4-c]pyridine-hydrochloride] | 5.59 | –
2 | 6.35 | COC(=O)[C@H]1CC[C@H](NC(=O)c2ccc(-c3nc4c(s3)CNCC4)c(C)c2)CC1 [2(4), 2-[4-[(trans-4-methoxycarbonyl-cyclohexyl)-aminocarbonyl]-2-methyl-phenyl]-4,5,6,7-tetrahydro-thiazolo[5,4-c]pyridine-dihydrochloride] | 5.84 | –
3 | 7.51 | O=C(N[C@H]1CC[C@H](C(=O)O)CC1)N1CCC(c2nc3c(s2)CNCC3)CC1 [3(5), 2-[1-[(trans-4-carboxy-cyclohexyl)-aminocarbonyl]-piperid-4-yl]-4,5,6,7-tetrahydro-thiazolo[5,4-c]pyridine] | 7.00 | –
4 | 7.38 | O=C(N[C@H]1CC[C@H](C(=O)O)CC1)N1CCC(c2nc3c(s2)CCNCC3)CC1 [3(6), 2-[1-[(trans-4-carboxy-cyclohexyl)-aminocarbonyl]-piperid-4-yl]-4,5,7,8-tetrahydro-6H-thiazolo[4,5-d]azepine] | 7.00 | –
5 | 5.68 | O=C(N[C@H]1CC[C@H](C(=O)O)CC1)c1ccc(-c2nc3cnccc3[nH]2)cc1 [3(8), 2-[4-[(trans-4-carboxy-cyclohexyl)-aminocarbonyl]-phenyl]-1H-imidazo[4,5-c]pyridine] | 5.38 | –
6 | 5.70 | CN1CCc2nc(C3CCN(C(=O)N[C@H]4CC[C@H](C(=O)O)CC4)CC3)sc2CC1 [3(12), 2-[1-[(trans-4-carboxy-cyclohexyl)-aminocarbonyl]-piperid-4-yl]-6-methyl-4,5,7,8-tetrahydro-thiazolo[4,5-d]azepine] | 5.54 | –
7 | 7.62 | Cc1cc(C(=O)N[C@H]2CC[C@H](C(=O)O)CC2)ccc1-c1nc2c(s1)CNCC2 [4(3), 2-[4-[(trans-4-carboxy-cyclohexyl)-aminocarbonyl]-2-methyl-phenyl]-4,5,6,7-tetrahydro-thiazolo[5,4-c]pyridine-trifluoraocetate] | 6.66 | –
8 | 6.92 | O=C(O)[C@H]1CC[C@H](NC(=O)[C@H]2CC[C@H](c3nc4c(s3)CCNCC4)CC2)CC1 [4(4), 2-[trans-4-[(trans-4-carboxy-cyclohexyl)-aminocarbonyl]-cyclohexyl]-4,5,7,8-tetrahydro-6H-thiazolo[4,5-d]azepine-trifluoroacetate] | 6.96 | –
9 | 5.85 | COC(=O)[C@H]1CC[C@H](NC(=O)N2CCC(c3nc4c(s3)CCNCC4)CC2)CC1 [7(1), 2-[1-[(trans-4-methoxycarbonyl-cyclohexyl)-aminocarbonyl]-piperid-4-yl]-4,5,7,8-tetrahydro-6H-thiazolo[4,5-d]azepine-hydrochloride] | 5.85 | –
10 | 5.89 | CCOC(=O)[C@H]1CC[C@H](NC(=O)N2CCC(c3nc4c(s3)CCNCC4)CC2)CC1 [7(2), 2-[1-[(trans-4-ethoxycarbonyl-cyclohexyl)-aminocarbonyl]-piperid-4-yl]-4,5,7,8-tetrahydro-6H-thiazolo[4,5-d]azepine-hydrochloride] | 5.59 | –
11 | 5.82 | CC(C)OC(=O)[C@H]1CC[C@H](NC(=O)N2CCC(c3nc4c(s3)CCNCC4)CC2)CC1 [7(3), 2-[1-[(trans-4-isopropoxycarbonyl-cyclohexyl)-aminocarbonyl]-piperid-4-yl]-4,5,7,8-tetrahydro-6H-thiazolo[4,5-d]azepine-hydrochloride] | 5.89 | –
12 | 5.80 | CC(C)COC(=O)[C@H]1CC[C@H](NC(=O)N2CCC(c3nc4c(s3)CCNCC4)CC2)CC1 [Example 7, 2-[1-[(trans-4-Isobutyloxycarbonyl-cyclohexyl)-aminocarbonyl]-piperid-4-yl]-4,5,7,8-tetrahydro-6H-thiazolo[4,5-d]azepine-hydrochloride] | 6.18 | –

Row | SMILES | pIC50 (human thrombocytes) | pEC50 (platelet aggregation) | death of animals after intravenous administration (mice)
13 | O=C(N[C@H]1CC[C@H](C(=O)O)CC1)c1ccc(-c2nc3c(s2)CCNCC3)cc1.O=C(O)C(F)(F)F [4(1), 2-[4-[(trans-4-carboxy-cyclohexyl)-aminocarbonyl]-phenyl]-4,5,7,8-tetrahydro-6H-thiazolo[4,5-d]azepine-trifluoroacetate] | 7.12 | 6.17 | no animals died
14 | O=C(N[C@H]1CC[C@H](C(=O)O)CC1)c1ccc(-c2nc3c(s2)CNCC3)cc1.O=C(O)C(F)(F)F [Example 4, 2-[4-[(trans-4-Carboxy-cyclohexyl)-aminocarbonyl]-phenyl]-4,5,6,7-tetrahydro-thiazolo[5,4-c]pyridine-trifluoroacetate] | 7.02 | 6.39 | no animals died
